The results in this text go back to patent US20250333410A1, “COMPOUND FOR INHIBITING OR DEGRADING BCL6 AND USE THEREOF IN PHARMACEUTICS” (XIZANG HAISCO PHARMACEUTICAL CO., LTD., priority 2022, published 2025).

The target in series [1] is T1, Bcl6 (Homo sapiens (Human), UniProt P41182). Description: Bcl-6 protein degradation experiment in Farage cells. Format: cell-based. Conditions: 24 hours. On the procedure: 2. Bcl-6 Protein Degradation Experiment in Farage Cells
(§1) Farage cells purchased from ATCC were placed in an RPMI-1640 complete medium (containing 10% fetal bovine serum, 100 U/mL penicillin and 100 μg/mL streptomycin) and cultured at 37° C. and 5% CO2. The cells in the logarithmic growth phase were collected, and the cell suspension was adjusted to an appropriate density with the culture medium and added to a 6-well cell culture plate at a volume of 1 mL/well. The compounds to be tested were prepared to 2-fold the final concentration, 1 mL of the compounds at different concentrations were added to administration wells, a medium containing 0.2% DMSO was added to control wells, and the plate was incubated at 37° C. for 24 hours. The cells were collected into a 1.5 mL centrifuge tube, 25 μL of RIPA lysis buffer (containing 1× protease inhibitor cocktail) was added, and the cells were lysed on ice for 15 minutes and centrifuged at 12000 rpm/min at 4° C. for 10 minutes. The supernatant was collected and the protein content was determined using the BCA method. The protein sample to be tested was diluted to 0.8 mg/mL, Bcl6 was detected using a fully automated protein expression quantitative analyzer (ProteinSimple), and the internal reference protein was R-actin (both antibodies were from CST). The software (Compass for SW) of the fully automated protein expression quantitative analyzer was used to process the raw data and calculate the peak area and the Bcl6 expression rate relative to the control group. DC50 values were calculated using a four-parameter non-linear fitting model in Graphpad 8.3.0 software.

Series [2] is described as follows: Pharmacokinetic test in rats. The series is classed as in vivo, SD rats. The conditions noted are these: i.g. 5 mg/kg; for AUC(0-t): male, SD, rat, po, rats plasma. On the procedure: 5. Pharmacokinetic Test in Rats
Experimental objective: in this experiment, a single dose of each test compound was administered to SD rats intravenously and intragastrically, and the concentrations of the test compounds in plasma of rats were measured to evaluate the pharmacokinetic characteristics of the test compounds in rats.
Experimental animal: male SD rats, 200-220 g, 6-8 weeks old, 6 rats/compound, purchased from Chengdu Ddossy Experimental Animals Co., Ltd.
Experimental method: on the day of the experiment, the SD rats were randomly grouped according to their body weights. The animals were fasted but with water available for 12 to 14 h one day before the administration, and were fed 4 h after the administration.
Sampling: Before and after the administration, 0.1 mL of blood was taken from the orbits under isoflurane anesthesia and placed in an EDTAK2 centrifuge tube. Centrifugation was carried out at 5000 rpm at 4° C. for 10 min, and the plasma was collected.
The plasma collection time points for IV&PO groups were 0, 5 min, 15 min, 30 min, 1 h, 2 h, 4 h, 7h, and 24 h.
Before analysis and detection, all samples were stored at −60° C. The samples were analyzed quantitatively by LC-MS/MS. PGP-3212J

The target in series [3] is hERG potassium ion channel (Homo sapiens (Human), UniProt Q12809). Description: Test for hERG potassium ion channel (manual patch-clamp, CHO cells). Format: cell-based. Conditions: CHO cells stably expressing hERG, whole cell patch-clamp; read-out: IC50 of inhibitory effects on hERG potassium channel current. An excerpt:
8. Test for hERG Potassium Ion Channel
Experimental platform: electrophysiological manual patch-clamp system
Cell line: Chinese hamster ovary (CHO) cell lines stably expressing hERG potassium ion channel
Experimental method: in CHO (Chinese Hamster Ovary) cells stably expressing hERG potassium channel, the whole cell patch-clamp technique was used to record hERG potassium channel current at room temperature. The glass microelectrode was made of a glass electrode blank (BF150-86-10, Sutter) by a puller. The tip resistance after filling the liquid in the electrode was about 2-5 MΩ. The glass microelectrode can be connected to the patch-clamp amplifier by inserting the glass microelectrode into an amplifier probe. The clamping voltage and data recording were controlled and recorded by the pClamp 10 software through a computer. The sampling frequency was 10 kHz, and the filtering frequency was 2 kHz. After the whole cell records were obtained, the cells were clamped at −80 mV, and the step voltage that induced the hERG potassium current (IhERG) was depolarized from −80 mV to +20 mV for 2 s, then repolarized to −50 mV, and returned to −80 mV after 1 s. This voltage stimulation was given every 10 s, and the administration process was started after the hERG potassium current was confirmed to be stable (at least 1 minute). The compound was administered for at least 1 minute at each test concentration, and at least 2 cells (n≥2) were tested at each concentration.
Data processing: data analysis processing was carried out by using pClamp 10, GraphPad Prism 5 and Excel software. The inhibition degree of hERG potassium current (peak value of hERG tail current induced at −50 mV) at different compound concentrations was calculated by the following formula: […]
where Inhibition % represents the percentage of inhibition of hERG potassium current by the compound, and I and Io represent the amplitude of hERG potassium current after and before the administration, respectively.
Compound IC50 was calculated using GraphPad Prism 5 software by fitting according to the following equation: […]
Among the equation, X represents the Log value of the tested concentration of the test sample, Y represents the inhibition percentage at the corresponding concentration, and Bottom and Top represent the minimum and maximum inhibition percentage, respectively.
(hERG is a cardiac potassium channel; its block is linked to QT prolongation.)

The nature of series [4]: Pharmacokinetic test in mice. Format: in vivo, ICR mice. The conditions noted are these: i.g. 5 mg/kg. Here is the method:
3. Pharmacokinetic Test in Mice
1.1 Experimental animal: male ICR mice, 25-30 g, 6 mice/compound, purchased from Chengdu Ddossy Experimental Animals Co., Ltd.
1.2 Experimental design: on the day of the experiment, the ICR mice were randomly grouped according to their body weights. The animals were fasted but with water available for 12 to 14 h one day before the administration, and were fed 4 h after the administration.

Series [5] deals with T1, Bcl6. Description: Bcl-6 protein degradation experiment in OCI-LY1 cells. Format: cell-based. The conditions noted are these: 24 hours. Here is the method:
4. Bcl-6 Protein Degradation Experiment in OCI-LY1 Cells
as §1, with “OCI-LY1” for “Farage”, “DSMZ” for “ATCC”, “IMDM” for “RPMI-1640”, “penicillin,” for “penicillin and”, “streptomycin and 50 µM mercaptoethanol)” for “streptomycin)”, “[…]” for “μL”

Chain of hERG potassium ion channel (Q12809 whole entry): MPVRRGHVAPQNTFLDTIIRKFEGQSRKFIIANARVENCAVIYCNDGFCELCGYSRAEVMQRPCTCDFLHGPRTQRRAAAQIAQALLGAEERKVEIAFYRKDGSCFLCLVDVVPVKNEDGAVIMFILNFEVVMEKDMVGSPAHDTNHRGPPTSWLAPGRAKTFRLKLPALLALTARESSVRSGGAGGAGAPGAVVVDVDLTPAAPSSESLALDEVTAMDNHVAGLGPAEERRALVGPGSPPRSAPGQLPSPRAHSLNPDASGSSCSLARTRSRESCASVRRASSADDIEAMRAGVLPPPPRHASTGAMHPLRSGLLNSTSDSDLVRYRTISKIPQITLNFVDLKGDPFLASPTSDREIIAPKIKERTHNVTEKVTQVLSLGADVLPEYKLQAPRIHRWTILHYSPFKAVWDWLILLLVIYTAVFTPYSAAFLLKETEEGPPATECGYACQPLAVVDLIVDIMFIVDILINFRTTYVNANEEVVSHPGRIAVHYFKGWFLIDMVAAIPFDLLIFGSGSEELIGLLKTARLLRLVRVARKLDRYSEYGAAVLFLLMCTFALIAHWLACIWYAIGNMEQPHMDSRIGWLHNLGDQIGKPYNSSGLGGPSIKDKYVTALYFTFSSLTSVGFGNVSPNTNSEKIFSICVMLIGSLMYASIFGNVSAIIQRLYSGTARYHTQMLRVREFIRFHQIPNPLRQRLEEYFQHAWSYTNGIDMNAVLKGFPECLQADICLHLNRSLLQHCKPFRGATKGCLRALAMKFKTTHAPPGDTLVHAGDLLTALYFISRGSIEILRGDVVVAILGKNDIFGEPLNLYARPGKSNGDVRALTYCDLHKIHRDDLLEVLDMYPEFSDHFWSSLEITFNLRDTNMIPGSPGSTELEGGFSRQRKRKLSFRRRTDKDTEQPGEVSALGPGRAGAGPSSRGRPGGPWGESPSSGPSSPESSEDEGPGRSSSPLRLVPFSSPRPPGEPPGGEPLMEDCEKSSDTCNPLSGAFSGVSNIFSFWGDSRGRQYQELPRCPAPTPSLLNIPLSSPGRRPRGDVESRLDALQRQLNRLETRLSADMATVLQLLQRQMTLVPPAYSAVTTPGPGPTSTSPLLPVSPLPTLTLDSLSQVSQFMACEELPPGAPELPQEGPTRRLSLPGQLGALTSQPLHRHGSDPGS

Usually DC50 stands for the concentration at which degradation of the target reaches its halfway point. As a reminder, the AUC(0-t) is the area under the concentration-time curve up to a stated or last time point. A lower AUC(0-t) goes with less exposure. In general, IC50 refers to the point on the concentration scale where inhibition reaches its midpoint. Turning to `[2H]C([2H])([2H])NC(=O)COc1cc2cc(Nc3nc(N4CCC(O[C@H]5C[C@H](N6CCN7c8cc(F)c(C9CCC(=O)NC9=O)cc8CC[C@H]7C6)C5)CC4)ncc3Cl)ccc2n(C)c1=O` (some centres unmarked) [Trifluoroacetate of compound 72], the DC50 in series [1] is < 10 nM. Besides, the AUC(0-t) in series [2] is > 1000 ng·h/mL. The IC50 in series [3] is > 40000 nM.

In the case of `[2H]C([2H])([2H])n1c(=O)c(OCC(=O)NC)cc2cc(Nc3nc(N4CCC(O[C@H]5C[C@H](N6CCN7c8cc(F)c(C9CCC(=O)NC9=O)cc8CC[C@H]7C6)C5)CC4)ncc3Cl)ccc21` (some centres unmarked) [Trifluoroacetate of compound 73], in series [1], the DC50 was < 10 nM. Besides, the area under the curve AUC(0-t) in series [2] is > 1000 ng·h/mL. Moreover, the IC50 in series [3] was > 40000 nM.

As for `CNC(=O)COc1cc2cc(Nc3nc(N4CCN(CC5CCN(c6ccc(C7CCC(=O)NC7=O)cc6)CC5)CC4)ncc3Cl)ccc2n(C)c1=O` (centres unmarked) [Compound 8], the 50% degradation concentration (DC50) was < 10 nM in series [1], < 100 nM in series [5] and < 5 nM in series [5] (listed as compound 8). Also, the AUC(0-t) in series [4] (male, ICR, mouse, po, mice plasma) is > 1000 ng·h/mL; in series [2], > 1000 ng·h/mL. Also, the F in series [4] (mice) and in series [2] (rats) was >50% each time. Further, the IC50 in series [3] is > 40000 nM.

On to `[2H]C([2H])([2H])NC(=O)COc1cc2cc(Nc3nc(N4CCC(O[C@H]5C[C@H](N6CCN7c8cc(F)c(C9CCC(=O)NC9=O)cc8CC[C@H]7C6)C5)CC4)ncc3Cl)ccc2n(C([2H])([2H])[2H])c1=O` (some centres unmarked) [Trifluoroacetate of compound 71], for which, in series [1], the DC50 is < 10 nM. Besides, the area under the curve AUC(0-t) in series [2] was > 1000 ng·h/mL. The concentration for half-maximal inhibition (IC50) in series [3] is > 40000 nM.

`CNC(=O)COc1cc2cc(Nc3nc(N4CCC(O[C@H]5C[C@H](N6CCn7c(cc8cc(C9CCC(=O)NC9=O)c(F)cc87)C6)C5)CC4)ncc3Cl)ccc2n(C(C)C)c1=O` (some centres unmarked) [Trifluoroacetate of compound 78]: in series [1], the half-maximal degradation concentration (DC50) is < 10 nM. Further, the AUC(0-t) in series [2] was > 1000 ng·h/mL. Further, the IC50 in series [3] was > 40000 nM.
